Test [1] deals with T1, SERT (Homo sapiens, UniProt P31645). The test is described as follows: hSERT membrane radioligand binding assay (3H-citalopram). More on the design: expressed in transfected cells; host or cells: HEK-293. The conditions noted are these: hSERT membranes (HEK-293), 1.0 nM 3H-citalopram; for Ki: read-out: SERT pKi (converted). The procedure:
(§1) Membrane radioligand binding assays were used to measure inhibition of labeled ligand (^3H-citalopram or ^3H-nisoxetine or ^3H-WIN35428) binding to membranes prepared from cells expressing the respective human recombinant transporter (hSERT or hNET or hDAT) in order to determine the pKi values of test compounds at the transporters.
(§2) Recombinant human embryonic kidney (HEK-293) derived cell lines stably transfected with hSERT or hNET, respectively, were grown in DMEM medium supplemented with 10% dialyzed FBS (for hSERT) or FBS (for hNET), 100 μg/ml penicillin, 100 μg/ml streptomycin, 2 mM L-glutamine and 250 μg/ml of the aminoglycoside antibiotic G418, in a 5% CO2 humidified incubator at 37° C. When cultures reached 80% confluence, the cells were washed thoroughly in PBS (without Ca^2+ and Mg^2+) and lifted with 5 mM EDTA in PBS. Cells were pelleted by centrifugation, resuspended in lysis buffer (10 mM Tris-HCl, pH7.5 containing 1 mM EDTA), homogenized, pelleted by centrifugation, then resuspended in 50 mM Tris-HCl, pH 7.5 and 10% sucrose at 4° C. Protein concentration of the membrane suspension was determined using a Bio-Rad Bradford Protein Assay kit. Membranes were snap frozen and stored at −80° C. Chinese hamster ovary membranes expressing hDAT (CHO-DAT) were purchased from PerkinElmer and stored at −80° C.
(§3) Binding assays were performed in a 96-well assay plate in a total volume of 200 μl assay buffer (50 mM Tris-HCl, 120 mM NaCl, 5 mM KCl, pH 7.4) with 0.5, 1, and 3 μg membrane protein, for SERT, NET and DAT, respectively.
(§4) Stock solutions (10 mM in DMSO) of test compound were prepared and serial dilutions made using Dilution Buffer (50 mM Tris-HCl, 120 mM NaCl, 5 mM KCl, pH 7.4, 0.1% BSA, 400 μM ascorbic acid). Non-specific radioligand binding was determined in the presence of 1 μM duloxetine, 1 μM desipramine or 10 μM GBR12909 (each in Dilution Buffer) for the hSERT, hNET or hDAT assays, respectively.
(§5) Following a 60 minute incubation at 22° C. (or a period sufficient to reach equilibrium), the membranes were harvested by rapid filtration over a 96-well UniFilter GF/B plate, pretreated with 0.3% polyethyleneimine, and washed 6 times with […] (50 mM Tris-HCl, 0.9% NaCl, pH 7.5 at 4° C.). Plates were dried overnight at room temperature, approximately […] of MicroScint™-20 (Perkin Elmer) added and bound radioactivity quantitated via liquid scintillation spectroscopy. Inhibition curves and saturation isotherms were analyzed using GraphPad Prism Software package (GraphPad Software, Inc., San Diego, Calif.). IC50 values were generated from concentration response curves using the Sigmoidal Dose Response (variable slope) algorithm in Prism GraphPad. Kd and Bmax values for the radioligand were generated from saturation isotherms using the Saturation Binding Global Fit algorithm in Prism GraphPad. pKi (negative decadic logarithm of Ki) values for test compounds were calculated from the best-fit IC50 values, and the Kd value of the radioligand, using the Cheng-Prusoff equation (Cheng & Prusoff (1973) Biochem. Pharmacol. 22(23):3099-3108): Ki=IC50/(1+[L]/Kd), where [L]=concentration radioligand.
Target sequence in this assay (P31645 whole entry): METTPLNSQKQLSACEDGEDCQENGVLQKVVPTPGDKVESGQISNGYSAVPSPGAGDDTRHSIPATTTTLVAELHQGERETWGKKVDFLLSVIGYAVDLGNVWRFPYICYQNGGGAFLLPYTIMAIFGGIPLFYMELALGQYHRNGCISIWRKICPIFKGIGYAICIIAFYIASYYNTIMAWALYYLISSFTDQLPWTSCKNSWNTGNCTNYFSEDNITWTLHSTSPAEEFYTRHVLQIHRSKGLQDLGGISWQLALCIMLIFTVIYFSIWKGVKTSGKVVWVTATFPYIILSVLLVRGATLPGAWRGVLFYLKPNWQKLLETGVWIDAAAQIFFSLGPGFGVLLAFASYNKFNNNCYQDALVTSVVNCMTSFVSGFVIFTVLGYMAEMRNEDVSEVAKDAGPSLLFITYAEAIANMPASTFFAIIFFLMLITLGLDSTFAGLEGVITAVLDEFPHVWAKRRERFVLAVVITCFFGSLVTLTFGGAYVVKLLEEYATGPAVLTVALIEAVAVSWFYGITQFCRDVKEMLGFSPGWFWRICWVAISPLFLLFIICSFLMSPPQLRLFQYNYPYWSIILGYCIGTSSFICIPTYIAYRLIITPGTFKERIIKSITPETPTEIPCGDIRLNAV

Test [2] addresses T2, NET (Homo sapiens, UniProt P23975). The test can be described thus: hNET membrane radioligand binding assay (3H-nisoxetine). Set-up: expressed in transfected cells; host or cells: HEK-293. The settings on record: hNET membranes (HEK-293), 1.0 nM 3H-nisoxetine; read-out: NET pKi (converted). The procedure:
as §1, §2, §3, §4, §5

The target of test [3] is T1, SERT. The test is described as follows: fluorescence-based serotonin uptake assay (Tsuruda et al. 2010). It counts as cell-based. The conditions noted are these: serotonin reuptake inhibition, fluorescence-based assay (data indicated by an asterisk); for IC50: read-out: SERT pIC50 (converted).
Target sequence in this assay (P31645 whole entry, species assumed): as the sequence (P31645 whole entry) above
Test [4] concerns the target T2, NET. The test can be described thus: fluorescence-based norepinephrine uptake assay (Tsuruda et al. 2010). In kind it is cell-based. The settings on record: norepinephrine reuptake inhibition, fluorescence-based assay (data indicated by an asterisk); for IC50: read-out: NET pIC50 (converted).

Marks after values point to notes of the source that are not given here. A value given as a limit tells only on which side of the number the result lay.

The source of these data is patent publication US8455665B2, “3-phenoxymethylpyrrolidine compounds” (Theravance, Inc., priority 2009, dated 2013).

T2 sequence (P23975 whole entry): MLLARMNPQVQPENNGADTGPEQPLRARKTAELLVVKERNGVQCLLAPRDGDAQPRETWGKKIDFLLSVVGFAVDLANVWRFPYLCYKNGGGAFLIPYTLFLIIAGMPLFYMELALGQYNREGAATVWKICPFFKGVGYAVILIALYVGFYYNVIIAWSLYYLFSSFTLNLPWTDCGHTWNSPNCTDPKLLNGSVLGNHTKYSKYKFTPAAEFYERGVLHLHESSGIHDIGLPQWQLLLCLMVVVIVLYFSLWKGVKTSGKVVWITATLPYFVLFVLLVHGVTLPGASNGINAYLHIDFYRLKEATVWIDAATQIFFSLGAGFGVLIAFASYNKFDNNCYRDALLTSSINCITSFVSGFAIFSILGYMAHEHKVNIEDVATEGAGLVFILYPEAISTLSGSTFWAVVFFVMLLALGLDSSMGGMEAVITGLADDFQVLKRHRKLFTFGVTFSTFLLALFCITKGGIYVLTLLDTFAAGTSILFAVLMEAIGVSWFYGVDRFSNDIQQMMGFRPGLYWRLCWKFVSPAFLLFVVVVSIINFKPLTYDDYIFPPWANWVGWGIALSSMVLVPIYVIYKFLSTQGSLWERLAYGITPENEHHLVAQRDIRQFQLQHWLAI

Regarding `COCC(Oc1cc(Cl)cc(Cl)c1)C1CCNC1` (stereo not shown) [Example 4-29, 3-[1-(3,5-Dichlorophenoxy)-2-methoxyethyl]pyrrolidine], the Ki at SERT [1] is not above 10 nM; at NET [2] it was not above 100 nM.
Take `COCC(Oc1ccc(Cl)cc1)C1CCNC1` (stereo not shown) [Example 4-4, 3-[1-(4-Chlorophenoxy)-2-methoxyethyl]pyrrolidine]: the Ki at SERT [1] was not above 10 nM; on NET [2] it was not above 100 nM.
With `Fc1cccc(O[C@H](C2CCOCC2)[C@@H]2CCNC2)c1` [Example 13-6, (R)-3-[(R)-(3-Fluorophenoxy)(tetrahydropyran-4-yl)methyl]pyrrolidine], the results for the Ki at SERT [1] and on NET [2] were not above 100 nM and not above 10 nM, respectively.
As for `FC(F)(F)c1cccc(O[C@@H](C2CCOCC2)[C@H]2CCNC2)c1` [Example 13-8, (S)-3-[(S)-(Tetrahydropyran-4-yl)(3-trifluoromethylphenoxy)methyl]pyrrolidine], the Ki on SERT [1] and on NET [2] was not above 100 nM in each case.
As to `Fc1cccc(O[C@@H](C2CCOCC2)[C@@H]2CCNC2)c1` [Example 13-5, (R)-3-[(S)-(3-Fluorophenoxy)(tetrahydropyran-4-yl)methyl]pyrrolidine], the Ki at SERT [1] and on NET [2] was not above 100 nM in each case.
Take `FC(F)(F)c1cc(Cl)ccc1O[C@H](C1CCOCC1)[C@@H]1CCNC1` [Example 13-23, (R)-3-[(R)-(4-Chloro-2-trifluoromethylphenoxy)(tetrahydropyran-4-yl)methyl]pyrrolidine]: the Ki on SERT [1] was not above 10 nM; on NET [2] it was not above 100 nM.
In the case of `COC[C@H](Oc1cccc(F)c1Cl)[C@H]1CCNC1` [Example 4-12, (S)-3-[(R)-1-(2-Chloro-3-fluorophenoxy)-2-methoxyethyl]pyrrolidine], the Ki on SERT [1] was not above 100 nM; at NET [2], not above 10 nM.
For the compound `Cc1c(Cl)cccc1O[C@@H](COC(C)C)[C@@H]1CCNC1` [Example 9-25, (R)-3-[(R)-1-(3-Chloro-2-methylphenoxy)-2-isopropoxyethyl]pyrrolidine], the “SERT pIC50” value on SERT [3] is listed as “≧8.0*”. Further, on SERT [1], the “SERT pKi” value is reported as “≧8.0”.
`CSC[C@@H](Oc1ccc(F)c(F)c1F)[C@H]1CCNC1.O=C(O)C(F)(F)F` [Example 15-14]: the “SERT pIC50” value on SERT [3] is recorded as “≧7.0*”. Further, on NET [4], the “NET pIC50” value is “≧8.0*”.
Turning to `CSC[C@@H](Oc1cccc(Cl)c1C(F)(F)F)[C@H]1CCNC1.O=C(O)C(F)(F)F` [Example 15-8], the “SERT pIC50” value at SERT [3] was “≧8.0*”. Besides, at NET [4], the “NET pIC50” value was “≧7.0*”.
For `Cc1c(Cl)cccc1OC(COCc1ccccc1)C1CCNC1` [Example 10-5, ((S)-3-[(R)-2-Benzyloxy-1-(3-chloro-2-methylphenoxy)ethyl]pyrrolidine], the IC50 on SERT [3] and on NET [4] was not above 10 nM each time.
With `CCOC[C@H](Oc1cccc(C(F)(F)F)c1F)[C@H]1CCNC1` [Example 7-12, (S)-3-[(R)-2-Ethoxy-1-(2-fluoro-3-trifluoromethylphenoxy)ethyl]pyrrolidine], the IC50 on SERT [3] and at NET [4] was not above 100 nM throughout.
For the compound `CCOC[C@H](Oc1ccc(Cl)cc1)[C@H]1CCNC1` [Example 7-4, (S)-3-[(R)-1-(4-Chlorophenoxy)-2-ethoxyethyl]pyrrolidine], the IC50 at SERT [3] and at NET [4] was not above 10 nM in each case.
Take `CCOC[C@H](Oc1ccc(Cl)c(Cl)c1F)[C@H]1CCNC1` [Example 7-29, (S)-3-[(R)-1-(3,4-Dichloro-2-fluorophenoxy)-2-ethoxyethyl]pyrrolidine]: the IC50 at SERT [3] and at NET [4] was not above 10 nM throughout.
On to `CCSC[C@H](Oc1cccc(Cl)c1Cl)[C@H]1CCNC1.O=C(O)C(F)(F)F` [Example 17-1], for which the “SERT pIC50” value at SERT [3] is “≧8.0*”. At NET [4], the “NET pIC50” value is “≧8.0*”.
Regarding `CCOC[C@H](Oc1c(F)ccc(F)c1Cl)[C@H]1CCNC1` [Example 7-30, (S)-3-[(R)-1-(2-Chloro-3,6-difluorophenoxy)-2-ethoxyethyl]pyrrolidine], the IC50 was not above 100 nM on SERT [3] and not above 10 nM at NET [4].
The matching figures for `CC(C)SC[C@H](Oc1ccc(Cl)c(Cl)c1)[C@H]1CCNC1` [Example 19-7, (S)-3-[(R)-1-(3,4-Dichlorophenoxy)-2-isopropylsulfanylethyl]-pyrrolidine]: not above 10 nM and not above 10 nM.
Turning to `CC(C)OC[C@@H](Oc1c(Cl)cccc1Cl)[C@H]1CCNC1` [Example 9-28, (S)-3-[(S)-1-(2,6-Dichlorophenoxy)-2-isopropoxyethyl]pyrrolidine], the IC50 on SERT [3] was not above 100 nM; on NET [4] it was not above 10 nM.
Take `CSC[C@H](Oc1ccc(Cl)cc1Cl)[C@H]1CCNC1.O=C(O)C(F)(F)F` [Example 15-11]: at SERT [3], the “SERT pIC50” value was “≧8.0*”. Besides, the “NET pIC50” value at NET [4] is reported as “≧8.0*”.
For the compound `CCSC[C@H](Oc1ccc(Cl)cc1Cl)[C@H]1CCNC1.O=C(O)C(F)(F)F` [Example 17-7], the “SERT pIC50” value at SERT [3] is reported as “≧8.0*”. In addition, the “NET pIC50” value at NET [4] was “≧8.0*”.
Consider `CCOC[C@H](Oc1ccc(Cl)cc1C)[C@H]1CCNC1` [Example 7-22, (S)-3-[(R)-1-(4-Chloro-2-methylphenoxy)-2-ethoxyethyl]pyrrolidine], for which the IC50 at SERT [3] and at NET [4] was not above 10 nM in each case.
As to `CCOC[C@H](Oc1c(Cl)ccc(Cl)c1F)[C@H]1CCNC1` [Example 7-32, (S)-3-[(R)-1-(3,6-Dichloro-2-fluorophenoxy)-2-ethoxyethyl]pyrrolidine], the IC50 at SERT [3] was not above 100 nM; on NET [4], not above 10 nM.
As for `CC(C)OC[C@H](Oc1ccc(Cl)cc1Cl)[C@H]1CCNC1` [Example 8, (S)-3-[(R)-1-(2,4-Dichlorophenoxy)-2-isopropoxyethyl]pyrrolidine], the IC50 on SERT [3] and on NET [4] was not above 10 nM throughout.
As for `CC(C)OC[C@H](Oc1cccc(Cl)c1Cl)[C@H]1CCNC1` [Example 9-7, (S)-3-[(R)-1-(2,3-Dichlorophenoxy)-2-isopropoxyethyl]pyrrolidine], the IC50 on SERT [3] and at NET [4] was not above 10 nM each time.
Regarding `CCOC[C@H](Oc1cccc(F)c1F)[C@H]1CCNC1` [Example 7-11, (S)-3-[(R)-1-(2,3-Difluorophenoxy)-2-ethoxyethyl]pyrrolidine], the IC50 is not above 100 nM at SERT [3] and not above 10 nM at NET [4].
As for `CCOC[C@H](Oc1ccccc1Cl)[C@H]1CCNC1` [Example 7-1, (S)-3-[(R)-1-(2-Chlorophenoxy)-2-ethoxyethyl]pyrrolidine], the IC50 is not above 100 nM on SERT [3] and not above 10 nM at NET [4].
In the case of `CSC[C@@H](Oc1cccc(Cl)c1Cl)[C@H]1CCNC1.O=C(O)C(F)(F)F` [Example 15-2], on SERT [3], the “SERT pIC50” value is given as “≧8.0*”. The “NET pIC50” value on NET [4] is listed as “≧8.0*”.
In the case of `CSC[C@@H](Oc1c(C)cc(Cl)cc1Cl)[C@H]1CCNC1.O=C(O)C(F)(F)F` [Example 15-13], at SERT [3], the “SERT pIC50” value is listed as “≧8.0*”. The “NET pIC50” value at NET [4] was “≧7.0*”.
For `Clc1cccc(Cl)c1OC(COCc1ccccc1)C1CCNC1` [Example 10-4, ((S)-3-[(R)-2-Benzyloxy-1-(2,6-dichlorophenoxy)ethyl]pyrrolidine], the IC50 is not above 100 nM on SERT [3] and not above 10 nM on NET [4].
